The source made the active and inactive calls. The calls are words filed in the database; no cut-off is given here.
Tests used:
Cell membrane = assay: Induction of cell membrane permeability in methicillin-resistant Staphylococcus aureus clinical isolate 16 assessed as fluorescent intensity by SYTOX dye based fluorescence assay; format: subcellular
Staphylococcus aureus [1] = assay: Antibacterial activity against methicillin-resistant Staphylococcus aureus clinical isolate M-20 assessed as inhibition of visible growth incubated for 16 to 18 hrs by CLSI method; format: functional; details: time 16-18 hrs, read-out: MIC100
Staphylococcus aureus [2] = assay: Antibacterial activity against methicillin-resistant Staphylococcus aureus clinical isolate 16 infected in BALB/c mouse assessed as reduction in bacterial load in kidney at 25 mg/kg, sc once a day for 3 days by H and E staining based assay; format: functional, organism-based; details: time 3.0 day
Staphylococcus aureus [3] = assay: Antibacterial activity against […] assessed as fold increase in MIC at sublethal concentration treated over 20 serial passages by resistance development assay; format: functional
Staphylococcus aureus [4] = assay: Antibacterial activity against methicillin-resistant Staphylococcus aureus clinical isolate M-18 assessed as inhibition of visible growth incubated for 16 to 18 hrs by CLSI method; format: functional; details: time 16-18 hrs, read-out: MIC100
Staphylococcus aureus [5] = assay: Antibiofilm activity against Staphylococcus aureus assessed as decrease in viable bacteria in biofilm at 2 to 64 ug/ml incubated for 16 to 18 hrs by biofilm disruption assay; format: functional, organism-based; details: dose 2-64 µg/ml, time 16-18 hrs
[6] = Toxicity in BALB/c mouse assessed as abnormalities and pathological changes in kidney at 25 mg/kg, sc once a day for 3 days by H and E staining based assay; format: organism-based; details: in vivo, 72 h, time 3 day
Staphylococcus aureus [7] = assay: Antibacterial activity against methicillin-resistant Staphylococcus aureus clinical isolate 16 infected in BALB/c mouse assessed as reduction in inflammatory cell inflammation in kidney at 25 mg/kg, sc once a day for 3 days by H and E staining based assay; format: functional, organism-based; details: time 3.0 day
Salmonella enterica = assay: Antibacterial activity against Salmonella enterica 349812 assessed as inhibition of visible growth incubated for 16 to 18 hrs by CLSI method; format: functional; details: time 16-18 hrs, read-out: MIC100
Staphylococcus aureus [8] = assay: Antibacterial activity against methicillin-resistant Staphylococcus aureus clinical isolate M-15 assessed as inhibition of visible growth incubated for 16 to 18 hrs by CLSI method; format: functional; details: time 16-18 hrs, read-out: MIC100
Bacillus subtilis = assay: Antibacterial activity against Bacillus subtilis assessed as inhibition of visible growth incubated for 16 to 18 hrs by CLSI method; format: functional; details: time 16-18 hrs, read-out: MIC100

**Q.** For `C=CCc1ccc(OCCC[N+](C)(C)CC(=O)NCCCC)c(-c2ccc(OCCC[N+](C)(C)CC(=O)NCCCC)c(CC=C)c2)c1.[Br-].[Br-]`, which Activity (Cell membrane) is on record?
**A.** Dose-Dependent Effect

**Q.** And the MIC (Staphylococcus aureus [1])?
**A.** 3 µg/mL

**Q.** And the Activity (Staphylococcus aureus [2])?
**A.** Active

**Q.** And the “fold change (FC)” value (Staphylococcus aureus [3])?
**A.** 128

**Q.** And the MIC (Staphylococcus aureus [4])?
**A.** 0.5 µg/mL

**Q.** And the Activity (Staphylococcus aureus [5])?
**A.** Active

**Q.** And the Activity [6]?
**A.** Non-Toxic

**Q.** And the Activity (Staphylococcus aureus [7])?
**A.** Active

**Q.** And the MIC (Salmonella enterica)?
**A.** 8 µg/mL

**Q.** What about the MIC (Staphylococcus aureus [8]) of the same molecule?
**A.** 0.5 µg/mL

**Q.** And the MIC (Bacillus subtilis)?
**A.** 1 µg/mL

— ChEMBL document CHEMBL4831516, “Development of Membrane-Active Honokiol/Magnolol Amphiphiles as Potent Antibacterial Agents against Methicillin-Resistant Staphylococcus aureus (MRSA)” (J Med Chem, 2021)
